Source: patent US9518000B2, “Bicyclo [2.2.1] acid GPR120 modulators” (BRISTOL-MYERS SQUIBB COMPANY, priority 2013, dated 2016)

Target: human GPR120 (Homo sapiens (Human), UniProt Q5NUL3)
Assay: GPR120 pERK AlphaScreen SureFire Assay (human GPR120 pERK assay)
Assay type: cell-based
Details: CHOA12 or CHO-K1 cells stably transfected with the short form of human GPR120 receptor; phosphorylated ERK; read-out: EC50 values measured in the human GPR120 pERK assay
Source text: GPR120 activity was monitored by measuring phosphorylation of ERK (pERK), since G protein receptors are known to activate the ERK signaling cascade either directly and/or through recruitment of arrestin that serves as a scaffold for downstream signaling events.
GPR120 pERK AlphaScreen SureFire Assay
The human and mouse GPR120-mediated intracellular phosphorylated ERK assays were established using CHOA12 cells stably transfected with the short form of human or mouse GPR120 receptor. Cells were cultured in growth medium consisting of F-12 media (Invitrogen Cat. #11765) with 5% Charcoal/Dextran FBS (Invitrogen Cat. #12676-029), 500 μg/mL GENETICIN® (Life Technologies Cat. #10131-027) and 250 μg/mL Zeocin (Invitrogen Cat. #R250-01). Cells were cryo preserved at a concentration of 2×10^7 cells/mL, in 90% Charcoal/Dextran FBS and 10% DMSO, and frozen in liquid nitrogen at a low passage number.
For the pERK assay, 2×10^7 cells/mL cryopreserved human and mouse cells were thawed rapidly in a 37° C. water bath and added to a T-225 flask containing 50 mL growth medium. The flasks were placed in a tissue culture incubator overnight (37° C., 5% CO2). The next day, cells were harvested with trypsin (Gibco Cat. #25300-054), resuspended in serum-containing growth medium and counted using a Cellometer and volume adjusted to a concentration of 0.6×10^6 cells/mL. Cells were plated into 384-well clear bottom tissue culture plates (BD Cat. #353962) at 50 μL/well, for a density of 30,000 cells/well using a MULTIDROP® and incubated for 16-18 hours (overnight) at 37° C. with 5% CO2. The next day, cells were serum starved in 30 μL of F-12 media without any serum or antibiotics for 2 hours at 37° C.
Test compounds were 3-fold, 11-point serially diluted in DMSO in a REMP assay plate (Matrix Cat. #4307) by Tecan and 5 μL was transferred into an ECHO source plate (LabCyte Cat. #LC-0200). Cells were then stimulated with 50 nL of compound dilutions using ECHO liquid handler for 7 minutes at 37° C. Compounds ranged from final assay concentrations of 33.33 μM to 0.56 nM.
The media was then dumped and cells lysed with 20 μL of 1× Lysis buffer from the AlphaScreen SureFire Phospho-ERK 1/2 Kit (Perkin Elmer Cat. #6760617M). The lysis buffer was diluted 5-fold with water before use. The plate was agitated on a shaker for 10 minutes after which 2 μL was transferred into a 384-well white proxiplate (Perkin Elmer Cat. #6008289). The SureFire assay reagent mix was prepared by mixing 60 parts Reaction Buffer, 10 parts Activation Buffer, 1 part Donor Beads, 1 part Acceptor Beads (Perkin Elmer Cat. #TGRES10K). 3.5 μL/well of this reagent mix was manually added to the proxiplate with a multichannel pipettor. Plates were spun down at 1000 rpm for 2 minutes, followed by light-protected incubation at room temperature for 2 hours. The plates were read on the Alpha-technology compatible Envision multilabel plate reader using AlphaScreen protocol according to manufacturer's specifications. The agonist effect of compounds was expressed as 100×(average sample-average blank)/(average total−average blank) where sample is the luminescence activity in the presence of test compound, blank is equal to the luminescence activity in the presence of DMSO control and the total is signal induced by 50 μM linolenic acid as reference compound. Activation data for the test compound over a range of concentrations was plotted as percentage activation of the test compound (100%=maximum response). After correcting for background, EC50 values were determined. The EC50 is defined as the concentration of test compound which produces 50% of the maximal response and was quantified using the 4 parameter logistic equation to fit the data.
The human and mouse GPR120-mediated intracellular phosphorylated ERK assays were also established using CHO-K1 cells stably transfected with the short form of human or mouse GPR120 receptor. […]

human GPR120, sequence (Q5NUL3 whole entry): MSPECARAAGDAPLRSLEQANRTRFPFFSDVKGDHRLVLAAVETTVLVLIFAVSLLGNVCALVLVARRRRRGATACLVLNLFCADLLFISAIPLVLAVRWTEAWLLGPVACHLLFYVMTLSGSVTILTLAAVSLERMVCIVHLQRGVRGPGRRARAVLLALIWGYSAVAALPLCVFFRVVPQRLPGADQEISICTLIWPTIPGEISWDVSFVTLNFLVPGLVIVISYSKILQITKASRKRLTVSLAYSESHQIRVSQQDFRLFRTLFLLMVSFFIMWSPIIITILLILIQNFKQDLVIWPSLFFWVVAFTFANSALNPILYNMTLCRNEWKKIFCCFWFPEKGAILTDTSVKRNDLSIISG

Compound	EC50 [nM]
3-(4-(1-(3-fluoro-5-(4- fluorophenoxy)phenyl)ethoxy) bicyclo[2.2.1]heptan-1-yloxy) propanoic acid [Example 82]	980
3-(4-(2-phenoxybenzyloxy) bicyclo[2.2.1]heptan-1-yloxy) propanoic acid [Example 80]	2750
4-(4-(2-(trifluoro- methoxy) benzoyloxy) bicyclo[2.2.1] heptan-1-yl) butanoic acid [Example 20]	710
4-(4-(3-chloro-5- phenoxybenzyl- oxy)bicyclo [2.2.1]heptan- 1-yl)benzoic acid [Example 6]	450
O=C(O)[C@@H]1C[C@H]1CC12CCC(OCc3cc(F)cc(Oc4ccccc4)c3)(CC1)C2 (single isomer, unassigned) [Example 93]	880
OCC(O)CCC12CCC(OCc3cc(F)cc(Oc4ccccc4)c3)(CC1)C2 (single isomer, unassigned) [Example 97, 4-(4-((3-Fluoro-5-phenoxybenzyl)oxy)bicyclo[2.2.1]heptan-1-yl)butane-1,2-diol]	2480
Cc1cc(COC23CCC(CCCC(=O)O)(CC2)C3)n(-c2ccc(Cl)cc2)n1 [Example 1, 4-(4-((1-(4-Chlorophenyl)-3-methyl-1H-pyrazol-5-yl)methoxy)bicyclo[2.2.1]heptan-1-yl) butanoic acid]	1560
COc1ccc(F)c(COC23CCC(CCCC(=O)O)(CC2)C3)c1 [Example 2, 4-(4-(2-fluoro-5-methoxybenzyl-oxy)bicyclo [2.2.1]heptan-1-yl)butanoic acid]	1820
O=C(O)CCCC12CCC(OCc3cc(Cl)cc(Cl)c3)(CC1)C2 [Example 4, 4-(4-(3,5-dichloro-benzyloxy)bicyclo[2.2.1]heptan-1-yl) butanoic acid]	650
CC(C)Oc1ccc(Cl)cc1COC12CCC(CCCC(=O)O)(CC1)C2 [Example 5, 4-(4-(5-chloro-2-isopropoxy-benzyloxy)bicyclo[2.2.1]heptan-1-yl) butanoic acid]	1020
CC(OC12CCC(CCCC(=O)O)(CC1)C2)c1cccc(C(F)(F)F)c1 (stereo not shown) [Example 8, 4-(4-(1-(3-(trifluoromethyl)phenyl)ethoxy)bicyclo[2.2.1]heptan-1-yl) butanoic acid]	2340
O=C(O)CCCC12CCC(OCc3ccccc3Cl)(CC1)C2 [Example 10, 4-(4-(2-chloro-benzyloxy)bicyclo[2.2.1]heptan-1-yl) butanoic acid]	2640
O=C(O)CCCC12CCC(OCc3ccc(Cl)c(Cl)c3)(CC1)C2 [Example 11, 4-(4-(3,4-dichlorobenzyl-oxy)bicyclo[2.2.1]heptan-1-yl) butanoic acid]	1090
Cc1ccc(COC23CCC(CCCC(=O)O)(CC2)C3)cc1F [Example 12, 4-(4-(3-fluoro-4-methylbenzyl-oxy)bicyclo [2.2.1]heptan-1-yl)butanoic acid]	6720
Cc1cc(COC23CCC(CCCC(=O)O)(CC2)C3)ccc1F [Example 13, 4-(4-(4-fluoro-3-methylbenzyl-oxy)bicyclo [2.2.1]heptan-1-yl)butanoic acid]	7670
COc1cc(COC23CCC(CCCC(=O)O)(CC2)C3)cc(OC)c1 [Example 21, 4-(4-(3,5-dimethoxybenzyl-oxy)bicyclo [2.2.1]heptan-1-yl)butanoic acid]	1920
O=C(O)CCCC12CCC(OCc3cc(F)cc(Cl)c3)(CC1)C2 [Example 22, 4-(4-(3-chloro-5-fluorobenzyl-oxy)bicyclo [2.2.1]heptan-1-yl)butanoic acid]	730
O=C(O)CCCC12CCC(OCc3cccc(Cl)c3)(CC1)C2 [Example 23, 4-(4-(3-chloro-benzyloxy)bicyclo[2.2.1]heptan-1-yl) butanoic aicd]	1150
O=C(O)CCCC12CCC(OCc3ccc(Cl)cc3)(CC1)C2 [Example 24, 4-(4-(4-chloro-benzyloxy)bicyclo[2.2.1]heptan-1-yl) butanoic acid]	2800
O=C(O)CCCC12CCC(OCc3cc(F)cc(C(F)(F)F)c3)(CC1)C2 [Example 25, 4-(4-(3-fluoro-5-(trifluoromethyl)benzyloxy)bicyclo[2.2.1]heptan-1-yl) butanoic acid]	640
COc1cc(F)cc(COC23CCC(CCCC(=O)O)(CC2)C3)c1 [Example 27, 4-(4-(3-fluoro-5-methoxybenzyl-oxy)bicyclo [2.2.1]heptan-1-yl)butanoic acid]	1560

Second part, the compound after the results:

EC50 [nM]	Compound
350	3-(4-(3-fluoro-5-(4- fluorophenoxy)benzyloxy) bicyclo[2.2.1]heptan-1-yloxy) propanoic acid [Example 81]
280	O=C(O)C1CC1CC12CCC(OCc3cc(F)cc(Oc4ccccc4)c3)(CC1)C2 (racemic) [Example 91, 2-((4-((3-Fluoro-5-phenoxybenzyl)oxy)bicyclo[2.2.1]heptan-1-yl)methyl)cyclopropanecarboxylic acid]
380	OCC(O)CCC12CCC(OCc3cc(F)cc(Oc4ccccc4)c3)(CC1)C2 (single isomer, unassigned) [Example 96, 4-(4-((3-Fluoro-5-phenoxybenzyl)oxy)bicyclo[2.2.1]heptan-1-yl)butane-1,2-diol]
530	CC1(C)Cc2cc(Cl)cc(COC34CCC(CCCC(=O)O)(CC3)C4)c2O1 [Example 3, 4-(4-((5-chloro-2,2-dimethyl-2,3-dihydro-benzofuran-7-yl)methoxy)bicyclo[2.2.1]heptan-1-yl) butanoic acid]
230	Cc1cc(COC23CCC(CCCC(=O)O)(CC2)C3)cc(OC(F)(F)F)c1 [Example 7, 4-(4-(3-methyl-5-(trifluorometh-oxy)benzyloxy)bicyclo[2.2.1]heptan-1-yl) butanoic acid]
600	O=C(O)CCCC12CCC(OC3CCc4c(Cl)cc(Cl)cc43)(CC1)C2 (stereo not shown) [Example 9, 4-(4-(4,6-dichloro-2,3-dihydro-1H-inden-1-yloxy)bicyclo[2.2.1]heptan-1-yl) butanoic acid]
270	O=C(O)CCCC12CCC(OCc3ccccc3Oc3ccccc3)(CC1)C2 [Example 14, 4-(4-(2-phenoxy-benzyloxy)bicyclo[2.2.1]heptan-1-yl) butanoic acid]
360	O=C(O)CCCC12CCC(OCc3cccc(Oc4ccccc4)c3)(CC1)C2 [Example 15, 4-(4-(3-phenoxy-benzyloxy)bicyclo[2.2.1]heptan-1-yl) butanoic acid]
640	O=C(O)CCCC12CCC(OCc3cccc(Oc4ccccc4F)c3)(CC1)C2 [Example 16, 4-(4-(3-(2-fluorophenoxy)benzyloxy)bicyclo[2.2.1]heptan-1-yl) butanoic acid]
250	O=C(O)CCCC12CCC(OCc3cccc(Oc4ccc(F)cc4)c3)(CC1)C2 [Example 17, 4-(4-(3-(4-fluorophenoxy)benzyloxy)bicyclo[2.2.1]-1-yl)butanoic acid]
250	O=C(O)CCCC12CCC(OCc3cc(Cl)cc(OC(F)(F)F)c3)(CC1)C2 [Example 18, 4-(4-(3-chloro-5-(trifluorometh-oxy)benzyloxy)bicyclo[2.2.1]heptan-1-yl) butanoic acid]
520	O=C(O)CCCC12CCC(OCc3cc(Cl)ccc3OC(F)(F)F)(CC1)C2 [Example 19, 4-(4-(5-chloro-2-(trifluorometh-oxy)benzyloxy)bicyclo[2.2.1]heptan-1-yl) butanoic acid]
620	O=C(O)CCCC12CCC(OCc3cccc(OC(F)(F)F)c3)(CC1)C2 [Example 26, 4-(4-(3-(trifluoro-methoxy)benzyl-oxy)bicyclo[2.2.1]heptan-1-yl) butanoic acid]
